EP4818172A1, “ASCORBIC ACID DERIVATIVES AND COSMETIC CONTAINING SAME” (Seiwa Kasei Co., Ltd., priority 2023, dated 2025)

Tests used:
[1] = Stability test -2: residual rate in cream of pH 7 or 9 stored at 50°C; assay type: physicochemical; conditions: cream with 4.0 W/W% derivative
Procedure, shortened: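 Each derivative was formulated into a cream by heating and mixing two component phases, cooling, then adding a third component, giving a final pH of 7 or 9. The creams were kept at 50°C for up to 4 weeks, and the remaining amount of derivative was measured to give a residual rate.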

[2] = system: Normal human dermal fibroblasts; experiment: Collagen production promoting effect (ELISA of free collagen in supernatant); assay type: cell-based; conditions: sample at 10 mM or less, cultured 48 hours, % of control group (100%), N=3
Description: Normal human dermal fibroblasts were prepared in D-MEM containing 5% (v/v) fetal bovine serum to a cell density of 2.5 × 10^4 cell s /well, and then pre-incubated for 24 hours on a 96-well plate. After removing the medium, samples prepared to a predetermined concentration in D-MEM containing 5% (v/v) fetal bovine serum were added to each well and cultured for 48 hours. After the culture was completed, the amount of free collagen in the supernatant was quantified by ELISA. Measurements were performed in triplicate (N=3).
The amount of collagen produced when the sample was measured at a concentration of 10 mM or less was compared with that of the control group, and the results (% values when the control group was set to 100%) are shown in Table 17 based on the following criteria. • <100%: ± • 100-140%: + • 140%<: ++ [Table 17]

[3] = Stability test -2: odor and coloration of cream stored at 50°C; assay type: physicochemical; conditions: Test Example 2, cream stored at 50°C, total score of 10 panelists
Procedure, shortened: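 Creams at pH 7 or 9 containing the test samples stored at 50°C for 4 weeks. Odor and coloration scored by 10 panelists against the freshly prepared cream; total scores classed as ○ (25 or more), △ (16-24) or × (15 or less).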

[4] = system: Normal human epidermal keratinocytes; experiment: Antioxidant effect: ROS production inhibition after H2O2 (DCFHDA probe); assay type: cell-based; conditions: sample at 10 mM or less, 24 hours, then 0.2 mM H2O2 for 2 hours, N=4
Description: Normal human epidermal keratinocytes were seeded onto a 96-well plate using KG2 medium at a cell density of 2.0 × 10^4 cells/well. After 24 hours of pre-incubation, samples adjusted to a predetermined concentration in KG2 medium were added to each well. After 24 hours of incubation, the medium was removed, followed by washing with HBSS(-) and the incorporation of the ROS-reactive fluorescent probe DCFHDA for 30 minutes. The cells were again washed with HBSS(-), treated with 0.2 mM H2O2, and incubated for 2 hours. The fluorescence intensity was measured, and the amount of ROS produced per unit protein was calculated by dividing the fluorescence intensity by the amount of protein quantified by the BCA method, resulting in an analytical value of 1. Furthermore, the amount of ROS production calculated without adding the sample adjusted to a predetermined concentration using the above test method was set to analytical value 2; and the amount of ROS production calculated without adding the sample or 0.2 mM H2O2 was set to analytical value 3.
ROS production inhibition rate (%) was calculated using the following formula. The higher the ROS production inhibition rate, the greater the antioxidant effect can be evaluated to be.
ROS production inhibition rate (%) = [(analysis value 2) - (analysis value 1)] / [(analysis value 2) - (analysis value 3)] × 100
The ROS production inhibition rate when the sample was measured at a concentration of 10 mM or less was evaluated as follows. Note that the measurement was performed in N=4. • <20%: + • 20-40%: ++ • 40%<: +++ [Table 21]

[5] = system: Normal human dermal fibroblasts (NHDF); experiment: Hyaluronic acid production promoting effect (ELISA of supernatant); assay type: cell-based; conditions: sample at 10 mM or less in serum-free D-MEM, cultured 48 hours, % of control group (100%), N=3
Procedure, shortened: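 NHDF pre-incubated 24 h in D-MEM/5% FBS, then exposed to samples (10 mM or less) in serum-free D-MEM for 48 h. Supernatant hyaluronic acid measured by ELISA, triplicate. Output expressed as % of untreated control (control = 100%), graded ±/+/++ at <100%, 100-120%, >120%.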

Residual Rate After 2 weeks ([1]; pH7, stored at 50°C) | Residual Rate After 4 weeks ([1]; pH7, stored at 50°C) | Residual Rate After 2 weeks ([1]; pH9, stored at 50°C) | Residual Rate After 4 weeks ([1]; pH9, stored at 50°C) | Odor After 4 weeks [3] | SMILES | Collagen production-promoting effect [2] | Coloration After 2 weeks [3] | Odor After 2 weeks [3] | Coloration After 4 weeks [3] | Antioxidant effect (ROS production inhibition rate) [4] | Hyaluronic acid production-promoting effect [5]
⊚ (95% or more) | ⊚ (95% or more) | ⊚ (95% or more) | ⊚ (95% or more) | Δ | CCCC(=O)OCC(O)C1OC(=O)C2=C1OCCCCO2 (centres unmarked) [synthesis example 9, 6-O-butanoyl-2,3-O-(1,4-butanediyl) ascorbic acid] | + (100-140%) | ○ (Total score of 10 panelists is 25 or more) | ○ (Total score of 10 panelists is 25 or more) | ○ (Total score of 10 panelists is 25 or more) | ++ (20-40%) | ++ (120%<)
⊚ (95% or more) | ⊚ (95% or more) | ⊚ (95% or more) | ⊚ (95% or more) | Δ | CCCCCCCCCCCC(=O)OCC(O)C1OC(=O)C2=C1OCCCCO2 (centres unmarked) [synthesis example 13, 6-O-lauroyl-2,3-O-(1,4-butanediyl) ascorbic acid] |  | ○ (Total score of 10 panelists is 25 or more) | ○ (Total score of 10 panelists is 25 or more) | ○ (Total score of 10 panelists is 25 or more) | + (<20%) | ++ (120%<)
⊚ (95% or more) | ⊚ (95% or more) | ⊚ (95% or more) | ⊚ (95% or more) | Δ | CCCCCCCCCCCCCCCC(=O)OCC(O)C1OC(=O)C2=C1OCCCCO2 (centres unmarked) [synthetic example 15, 6-O-palmitoyl-2,3-O-(1,4-butanediyl) ascorbic acid] | ++ (140%<) | ○ (Total score of 10 panelists is 25 or more) | ○ (Total score of 10 panelists is 25 or more) | ○ (Total score of 10 panelists is 25 or more) | + (<20%) | ++ (120%<)
⊚ (95% or more) | ⊚ (95% or more) | ⊚ (95% or more) | ⊚ (95% or more) | Δ | CCCCCCCC(=O)OCC(OC(=O)CCCCCCC)C1OC(=O)C2=C1OCCCO2 (centres unmarked) [synthesis example 23, 5,6-O-dioctanoyl-2,3-O-(1,3-propanediyl) ascorbic acid] | ++ (140%<) | ○ (Total score of 10 panelists is 25 or more) | ○ (Total score of 10 panelists is 25 or more) | ○ (Total score of 10 panelists is 25 or more) | + (<20%) | + (100-120%)
⊚ (95% or more) | ⊚ (95% or more) | ⊚ (95% or more) | ⊚ (95% or more) | Δ | CC(C)CCCCCCCCCCCCCCC(=O)OC[C@H](O)[C@H]1OC(=O)C2=C1OCCCCO2 [synthesis example 17, 6-O-isostearoyl-2,3-O-(1,4-butanediyl) ascorbic acid] | ++ (140%<) | ○ (Total score of 10 panelists is 25 or more) | ○ (Total score of 10 panelists is 25 or more) | ○ (Total score of 10 panelists is 25 or more) | + (<20%) | ++ (120%<)
⊚ (95% or more) | ⊚ (95% or more) | ⊚ (95% or more) | ⊚ (95% or more) | Δ | CCCC(=O)OCC(OC(=O)CCC)C1OC(=O)C2=C1OCCCCO2 (centres unmarked) [synthesis example 10, 5,6-O-dibutanoyl-2,3-O-(1,4-butanediyl) ascorbic acid] | ++ (140%<) | ○ (Total score of 10 panelists is 25 or more) | ○ (Total score of 10 panelists is 25 or more) | ○ (Total score of 10 panelists is 25 or more) | + (<20%) | ++ (120%<)

The remaining lines, values behind:

SMILES | Residual Rate After 2 weeks ([1]; pH7, stored at 50°C) | Residual Rate After 4 weeks ([1]; pH7, stored at 50°C) | Residual Rate After 2 weeks ([1]; pH9, stored at 50°C) | Residual Rate After 4 weeks ([1]; pH9, stored at 50°C) | Odor After 4 weeks [3] | Collagen production-promoting effect [2] | Coloration After 2 weeks [3] | Odor After 2 weeks [3] | Coloration After 4 weeks [3] | Antioxidant effect (ROS production inhibition rate) [4] | Hyaluronic acid production-promoting effect [5]
O=C1OC2C(O)COC23OCCCOC13 (centres unmarked) [synthesis Example 34, 4-hydroxy-2,6,9,13-tetraoxatricyclo [6.5.0.0^1.5] tridecan-7-one] |  |  |  |  |  |  |  |  |  | ++ (20-40%) | + (100-120%)
O=C1O[C@H]([C@@H](O)CO)C(OCC(O)CO)=C1O (some centres unmarked) [3-O-glyceryl ascorbic acid, reference compound] |  |  |  |  |  | + (100-140%) |  |  |  | + (<20%) | 
O=C1OC2C(O)COC23OCCCCOC13 (centres unmarked) [synthesis Example 33, 4-hydroxy-2,6,9,14-tetraoxatricyclo [6.6.0.0^1.5] tetradecan-7-one] |  |  |  |  |  |  |  |  |  | ++ (20-40%) | + (100-120%)
CCCCCCCCCCCC(=O)OCC(OC(=O)CCCCCCCCCCC)C1OC(=O)C2=C1OCCCCO2 (centres unmarked) [synthesis example 14, 5,6-O-dilauroyl-2,3-O-(1,4-butanediyl) ascorbic acid] | ⊚ (95% or more) | ⊚ (95% or more) | ⊚ (95% or more) | ○ (85% or more, less than 95%) | Δ |  | ○ (Total score of 10 panelists is 25 or more) | ○ (Total score of 10 panelists is 25 or more) | ○ (Total score of 10 panelists is 25 or more) | + (<20%) | ++ (120%<)
O=C1O[C@H]([C@@H](O)CO)C(O)=C1OCC(O)CO (some centres unmarked) [2-O-glyceryl ascorbic acid, reference compound] |  |  |  |  |  | + (100-140%) |  |  |  | + (<20%) | 
